According to paper PMC10076671, “Spider venom-derived peptide JZTX-14 prevents migration and invasion of breast cancer cells via inhibition of sodium channels” (Frontiers in Pharmacology, 2023):
Where a SMILES comes first, the peptide text is derived from it. Bridges are numbered along the chain shown (N, C = ends).

Key:
[1] = test system: human breast cancer cells; settings: ref Wannous et al., 2015; cited from earlier work
Description: (§1) Voltage-gated sodium channels (Navs; VGSCs) are membrane proteins with nine isoforms responsible for the rapid upstroke of action potentials in excitable cells ([de Lera Ruiz and Kraus, 2015]). VGSCs are present in excitable and non-excitable cells, including microglia, astrocytes, immune cells, fibroblasts, and cancer cells, and play various biological roles, such as tumour cell migration and immune cell phagocytosis ([Black and Waxman, 2013]; [Roger et al., 2015]). Nav1.5, encoded by SCN5A, is an essential receptor in breast cancer growth and migration ([Rajaratinam et al., 2022]).

MDA-MB-231 cells [2] = settings: strongly metastatic MDA-MB-231 cells; ref Yang et al., 2012; cited from earlier work
Description: as §1

MDA-MB-231 cells [3] = settings: ref Yang et al., 2012; cited from earlier work
Description: Voltage-gated sodium channels (Navs; VGSCs) are membrane proteins with nine isoforms responsible for the rapid upstroke of action potentials in excitable cells ([de Lera Ruiz and Kraus, 2015]). VGSCs are present in excitable and non-excitable cells, including microglia, astrocytes, immune cells, fibroblasts, and cancer cells, and play various biological roles, such as tumour cell migration and immune cell phagocytosis ([Black and Waxman, 2013]; [Roger et al., 2015]). Nav1.5, encoded by SCN5A, is an essential receptor in breast cancer growth and migration ([Rajaratinam et al., 2022]). […] Nav1.5, a pore-forming alpha subunit of VGSC encoded by SCN5A, is not expressed in normal breast tissue or cells but is highly expressed in the breast cancer cell line MDA-MB-231 ([Dutta et al., 2018]). Elevated Nav1.5 expression promotes cell invasion and breakdown of extracellular matrix proteins, maintains ac ... || A peptide with anticancer activity was isolated and purified from animal venom to construct a new anticancer drug library. Compared to small-molecule drugs, peptide drugs have the advantages of high selectivity and affinity for molecular targets, and it is not easy to make tumours resistant to drugs ([Wu et al., 2014]). To date, many anticancer peptides have been screened from animal venom. […] Melittin, ...

breast cancer cell = settings: ref Driffort et al., 2014; cited from earlier work
Description: as §1

Nav1.5 = type: cell-based; settings: Discussion: HEK293 cells heterologously expressing Nav1.5, 0.1 and 1 μM
Procedure: Sodium currents in experimental cells were recorded at room temperature (22°C–25°C) using an EPC-10 patch-clamp amplifier (HEKA, Germany) in a whole-cell patch-clamp configuration. Recording pipettes were made from borosilicate glass capillaries (VWR, United States) using a PC-10 puller (Narishige, Japan). The inner solution (mM): KCl 130, NaCl 15, CaCl2 0.37, MgCl2 1 EGTA 1, HEPES 10, pH 7.2, resistance was measured as 1.8 MO. The outer solution was composed of (mM): NaCl 140, KCl 3, MgCl2 1, CaCl2 1, HEPES 10, pH 7.2. To minimize voltage errors, the series resistance compensation was set to 80%. The P/4 protocol was used to subtract the linear capacitance and leakage current. Experimental data were acquired and analyzed using the pulse fit 8.0 program (HEKA, Germany). The needed concentrations of toxin dissolved in external solution were applied to the cell surface by microinjector.
To determine the biological activity of synthetic and natural JZTX-14 on Nav1.5, we observed their effects on HEK293T cells heterologously expressing Nav1.5 using a whole-cell voltage-clamp configuration. The current traces were induced by a 50 ms depolarisation potential of −30 mV at a holding potential of −100 mV. Currents were recorded by adding 0.1 μM and 0.5 μM of JZTX-14 to the solution.

breast cancer cells = settings: inhibiting the PI3K/Akt/mTOR signalling pathway, ref Lim et al., 2019; cited from earlier work
Description: A peptide with anticancer activity was isolated and purified from animal venom to construct a new anticancer drug library. Compared to small-molecule drugs, peptide drugs have the advantages of high selectivity and affinity for molecular targets, and it is not easy to make tumours resistant to drugs ([Wu et al., 2014]). To date, many anticancer peptides have been screened from animal venom. […] Melittin, ...

For CC/C=C\C/C=C\C/C=C\C/C=C\C/C=C\C/C=C\CCC(=O)O [DHA], the “Invasiveness of Nav1.5-dependent cancer cells” value [1] is listed as “reducing the invasiveness of Nav1.5-dependent cancer cells” and the “Nav1.5 current and NHE-1 activity” value [1] is listed as “inhibits Nav1.5 current and NHE-1 activity”.

In the case of O=C1NC(=O)C(c2ccccc2)(c2ccccc2)N1 [Phenytoin], the “Transient and persistent Na+ current” value (MDA-MB-231 cells [2]) is listed as “inhibited the transient and persistent Na^+ current” and the Migration and invasion (MDA-MB-231 cells [3]) is listed as “significantly inhibiting the migration and invasion”.

In the case of COc1ccccc1OCC(O)CN1CCN(CC(=O)Nc2c(C)cccc2C)CC1 (stereo not shown) [Ranolazine], the “Nav1.5-mediated breast cancer cell invasiveness and lung colonisation” value (breast cancer cell) is listed as “inhibits Nav1.5-mediated breast cancer cell invasiveness and lung colonisation”.

For CC[C@H](C)[C@H](NC(=O)[C@@H]1CSSC[C@@H]2NC(=O)[C@@H]3CCCN3C(=O)[C@@H]3CCCN3C(=O)[C@H](CCC(N)=O)NC(=O)CNC(=O)[C@@H]3CCCN3C(=O)[C@H](Cc3c[nH]cn3)NC(=O)[C@@H]3CSSC[C@H](NC(=O)[C@H](C)NC(=O)[C@H](CC(C)C)NC(=O)CNC(=O)[C@H](CO)NC(=O)[C@H](CSSC[C@H](NC(=O)CN)C(=O)N[C@@H](CCC(N)=O)C(=O)N[C@@H](CCCCN)C(=O)N[C@@H](Cc4ccccc4)C(=O)N[C@@H](Cc4ccccc4)C(=O)N[C@@H](Cc4c[nH]c5ccccc45)C(=O)N[C@@H]([C@@H](C)O)C(=O)N3)NC2=O)C(=O)N[C@@H]([C@@H](C)O)C(=O)N[C@@H](Cc2c[nH]c3ccccc23)C(=O)N2CCC[C@H]2C(=O)N[C@@H]([C@@H](C)O)C(=O)N[C@@H](CCC(=O)O)C(=O)N[C@@H]([C@@H](C)CC)C(=O)N1)C(=O)N[C@@H](CC(C)C)C(N)=O [natural JZTX-14] (H-GCQKFFWTCHPGQPPCCSGLACTWPTEICIL-NH2; disulfide 2-17, 9-22, 16-29), the “Inhibition of Nav1.5 channels (in words)” value (Nav1.5) was “significantly inhibited Nav1.5 channels in a concentration-dependent manner”.

In the case of “Melittin: the main peptide component of Apis mellifera venom”, the “EGF-induced cell movement and invasion” value (breast cancer cells) is listed as “inhibits EGF-induced cell movement and invasion”.
